Assays:
[1] = 101.33 kPa, Liquid; for viscosity: Concentric cylinders viscometry; for mass density: Vibrating tube method
[2] = xn = mol fraction of the nth substance listed; conditions: 100 kPa, Liquid; for viscosity: Concentric cylinders viscometry; for mass density: Vibrating tube method

CC(CC(C)(C)C)CP(=O)([O-])CC(C)CC(C)(C)C.CCCCCCCCCCCCCC[P+](CCCCCC)(CCCCCC)CCCCCC
[1]
Conditions | mass density [kg/m3] | viscosity [mPa·s]
278.15 K | 897.3 | 5574.5
283.15 K | 894.3 | 3805.5
288.15 K | 891.3 | 2675.3
293.15 K | 888.3 | 1918.2
298.15 K | 885.3 | 1401.7
303.15 K | 882.3 | 1041.5
308.15 K | 879.3 | 785.77
313.15 K | 876.3 | 601.35
318.15 K | 873.4 | 466.24
323.15 K | 870.4 | 365.83
328.15 K | 867.5 | 290.28
333.15 K | 864.6 | 232.76
338.15 K | 861.7 | 188.43
343.15 K | 858.9 | 153.95
348.15 K | 856 | 126.77
353.15 K | 853.2 | 105.22
358.15 K | 850.3 | 87.92
363.15 K | 847.5 | 73.91

CCCCCCCCCCCCCC[P+](CCCCCC)(CCCCCC)CCCCCC.O=S(=O)([N-]S(=O)(=O)C(F)(F)F)C(F)(F)F
[1]
Conditions | mass density [kg/m3] | viscosity [mPa·s]
278.15 K | 1081.1 | 1246.2
283.15 K | 1077.4 | 871.17
288.15 K | 1073.6 | 622.45
293.15 K | 1069.8 | 453.64
298.15 K | 1066.1 | 336.74
303.15 K | 1062.4 | 254.24
308.15 K | 1058.8 | 195.04
313.15 K | 1055.2 | 151.85
318.15 K | 1051.6 | 119.85
323.15 K | 1048 | 95.81
328.15 K | 1044.4 | 77.55
333.15 K | 1040.9 | 63.47
338.15 K | 1037.3 | 52.49
343.15 K | 1033.7 | 43.84
348.15 K | 1030.2 | 36.95
353.15 K | 1026.6 | 31.41
358.15 K | 1023.1 | 26.91

CC(CC(C)(C)C)CP(=O)([O-])CC(C)CC(C)(C)C.CCCCCCCCCCCCCC[P+](CCCCCC)(CCCCCC)CCCCCC + O
[2], x2 = 0.876
Conditions | mass density [kg/m3] | viscosity [mPa·s]
298.15 K | 907.3 | 173.82
303.15 K | 903.9 | 128.58
308.15 K | 900.5 | 97.03
313.15 K | 897.2 | 74.52
318.15 K | 893.8 | 58.16
323.15 K | 890.4 | 46.06
328.15 K | 887.1 | 37
333.15 K | 883.6 | 30.09
338.15 K | 880.2 | 24.76
343.15 K | 876.8 | 20.59
348.15 K | 873.4 | 17.3
353.15 K | 869.9 | 14.66
358.15 K | 866.5 | 12.53
363.15 K | 863.1 | 10.78

CCCCCCCCCCCCCC[P+](CCCCCC)(CCCCCC)CCCCCC.O=S(=O)([N-]S(=O)(=O)C(F)(F)F)C(F)(F)F + O
[2], x2 = 0.088
Conditions | mass density [kg/m3] | viscosity [mPa·s]
298.15 K | 1066.1 | 300.01
303.15 K | 1062.4 | 224.6
308.15 K | 1058.7 | 170.8
313.15 K | 1055 | 132.06
318.15 K | 1051.4 | 103.5
323.15 K | 1047.7 | 82.08
328.15 K | 1044 | 65.75
333.15 K | 1040.4 | 53.41
338.15 K | 1036.7 | 44.23
343.15 K | 1033.1 | 37.14
348.15 K | 1029.6 | 31.46
353.15 K | 1026 | 26.9
358.15 K | 1022.4 | 23.17
363.15 K | 1018.8 | 20.09

CCCCCCCCCCCCCC[P+](CCCCCC)(CCCCCC)CCCCCC.N#C[N-]C#N [tetradecyl(trihexyl)phosphonium dicyanamide]
[1]
Conditions | mass density [kg/m3] | viscosity [mPa·s]
278.15 K | 910.8 | 1646.8
283.15 K | 907.8 | 1144.9
288.15 K | 904.9 | 816.36
293.15 K | 901.9 | 592.93
298.15 K | 899 | 438.57
303.15 K | 896.1 | 329.68
308.15 K | 893.3 | 251.71
313.15 K | 890.4 | 195
318.15 K | 887.6 | 153.15
323.15 K | 884.8 | 121.78
328.15 K | 882 | 97.96
333.15 K | 879.2 | 79.73
338.15 K | 876.4 | 65.56
343.15 K | 873.7 | 54.43
348.15 K | 870.9 | 45.6
353.15 K | 868.1 | 38.53
358.15 K | 865.3 | 32.85
363.15 K | 862.6 | 28.2

CCCCCCCCCCCCCC[P+](CCCCCC)(CCCCCC)CCCCCC.N#C[N-]C#N [tetradecyl(trihexyl)phosphonium dicyanamide] + O
[2], x2 = 0.496
Conditions | mass density [kg/m3] | viscosity [mPa·s]
298.15 K | 900.7 | 190.83
303.15 K | 897.6 | 145.77
308.15 K | 894.7 | 113.3
313.15 K | 891.7 | 89.4
318.15 K | 888.7 | 71.54
323.15 K | 885.7 | 57.96
328.15 K | 882.7 | 47.54
333.15 K | 879.8 | 39.43
338.15 K | 876.8 | 33.03
343.15 K | 873.8 | 27.94
348.15 K | 870.9 | 23.84
353.15 K | 867.9 | 20.52
358.15 K | 865 | 17.78
363.15 K | 862 | 15.51

Reference: the NIST ThermoML archive (doi:10.1016/j.jct.2011.01.016)
